Some test systems named below: SK-MEL-5; T47D; MCF7; HOP-62; M14; HCT-15; MDA-MB-435; NCI-H460; SK-MEL-28; HL-60; SK-OV-3; MOLT-4; HCT-116; SNB-19; SNB-75; A498; SF-268; SR; Malme-3M.
Assay in all cases: NCI-60 cell line screen, 48 h

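Five compound concentrations were applied to cells in 96-well plates for 48 hours; endpoints were derived by simple linear interpolation of the resulting dose-response curve. GI50 is the concentration that inhibits growth by half.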 The source made the active and inactive calls. Rule as the data show it: active = GI50 up to about 1.1 µM and inactive = higher.

As to `CC1(C)CC(=O)C(=CNc2nc(-c3ccccc3)cs2)C(=O)C1`, the GI50 with SK-MEL-5 was 38.1 µM (inactive); in the test with T47D, 32.7 µM (inactive); in the test with MCF7, 29.2 µM (inactive); with HOP-62, 34.2 µM (inactive); in the test with M14 it was 41.1 µM (inactive); with HCT-15, 20.2 µM. Besides, the GI50 in the test with MDA-MB-435 was 24.9 µM (inactive); in the test with NCI-H460, 30.7 µM (inactive); in the test with SK-MEL-28, 26.7 µM (inactive); in the test on HL-60 it was 47.9 µM (inactive); in the test on SK-OV-3, > 100 µM (inactive); with MOLT-4 it was 32.4 µM (inactive). Also, the results for the GI50 in the test on HCT-116, in the test on SNB-19 and in the test on SNB-75 were > 100 µM (inactive), 71.4 µM (inactive) and 33.7 µM (inactive), respectively.
For the compound `C/C(=N\NC(N)=S)C(CN(CC(C)C)CC(C)C)C(=O)Nc1ccc(C)cc1C` (centres undefined), the GI50 with A498, with SK-MEL-5, with SF-268, with SR, with Malme-3M and with HOP-62 was > 100 µM (inactive) each time. Besides, the GI50 is > 100 µM (inactive) in the test on M14; above 100 µM in the test with HCT-15; > 100 µM (inactive) with NCI-H460; > 100 µM (inactive) in the test on SK-MEL-28; > 100 µM (inactive) in the test with HL-60; > 100 µM (inactive) in the test on SK-OV-3. For the same compound, the GI50 is > 100 µM (inactive) with MOLT-4, > 100 µM (inactive) with HCT-116, > 100 µM (inactive) in the test with SNB-19 and 90.6 µM (inactive) with SNB-75.
As for `Cc1ccccc1C1=[N+]([O-])c2ccc(Cl)cc2C1=O`, the GI50 with A498 is 20.2 µM (inactive); with SK-MEL-5, 13.8 µM (inactive); in the test with SF-268 it was 18.5 µM (inactive); with SR it was 11.8 µM (inactive); in the test with Malme-3M, 16.9 µM (inactive); in the test with HOP-62, 20 µM (inactive). For the same compound, the GI50 is 16.3 µM (inactive) in the test on M14; 13.3 µM in the test on HCT-15; 15.4 µM (inactive) with NCI-H460; 21.1 µM (inactive) with SK-MEL-28; 2.35 µM (inactive) with HL-60; 26.4 µM (inactive) in the test with SK-OV-3. Besides, the GI50 was 3.6 µM (inactive) in the test on MOLT-4, 7.46 µM (inactive) in the test on HCT-116, 28.1 µM (inactive) with SNB-19 and 19.8 µM (inactive) in the test on SNB-75.
For `CCCCCCCC(=O)OCC1OC(n2cc(F)c(=O)[nH]c2=O)C(N)C(O)C1O` (centres undefined), the GI50 in the test with A498, in the test on SK-MEL-5, in the test with SF-268, in the test on SR, with Malme-3M and in the test on HOP-62 was > 100 µM (inactive) throughout. The GI50 was > 100 µM (inactive) with M14; above 100 µM in the test with HCT-15; > 100 µM (inactive) in the test with NCI-H460; > 100 µM (inactive) with SK-MEL-28; > 100 µM (inactive) in the test on HL-60; > 100 µM (inactive) with SK-OV-3. Also, the GI50 in the test on MOLT-4, in the test with HCT-116, in the test with SNB-19 and in the test with SNB-75 was > 100 µM (inactive) each time.
For the compound `S=c1nc(N2CCCCC2)ss1`, the GI50 in the test on A498 was 20.2 µM (inactive); with SK-MEL-5, 16.6 µM (inactive); in the test on SF-268 it was 21.1 µM (inactive); in the test on SR, 14.2 µM (inactive); with Malme-3M it was 19.3 µM (inactive); in the test with HOP-62, 26.7 µM (inactive). In addition, the GI50 in the test on M14 was 20.2 µM (inactive); with HCT-15, 21.1 µM; in the test with NCI-H460, 22.3 µM (inactive); with SK-MEL-28, 18.4 µM (inactive); in the test on HL-60, 13.5 µM (inactive); with SK-OV-3, > 100 µM (inactive). The GI50 in the test on MOLT-4 was 12.4 µM (inactive); with HCT-116, 17.7 µM (inactive); in the test with SNB-19, 27.6 µM (inactive); with SNB-75, 24.4 µM (inactive).

The values above are taken from ChEMBL document CHEMBL1201862, “PubChem BioAssay data set” (2004).
